Earlier results on one molecule are cited in paper PMC12144996 (Acta Pharmaceutica Sinica. B, 2025).

Each structure is given as a SMILES string.

The subject of the data set is SARS-CoV-2 variants of concern (VOCs). As to conditions: cited from earlier work.

Regarding `CC(C)C(=O)OC[C@H]1O[C@@](C#N)(c2ccc3c(N)ncnn23)[C@H](O)[C@@H]1O` [ATV006], the “Antiviral activity against SARS-CoV-2 variants of concern” value is “potent antiviral activity”.
